{"source": "patent US7871995B2", "about": "“Drug delivery system comprising a tetrahydroxylated estrogen for use in hormonal contraception” (Pantarhei Bioscience B.V., priority 2001, dated 2011)", "key": {"[1]": {"molecular_target": "T1, human sex Hormone Binding Globulin (SHBG) (Homo sapiens, UniProt P04278)", "T1 construct": "Human SHBG was purified from transgenic mouse serum; made in house; host or cells: transgenic mouse (serum)", "T1 sequence (P04278 30-402)": "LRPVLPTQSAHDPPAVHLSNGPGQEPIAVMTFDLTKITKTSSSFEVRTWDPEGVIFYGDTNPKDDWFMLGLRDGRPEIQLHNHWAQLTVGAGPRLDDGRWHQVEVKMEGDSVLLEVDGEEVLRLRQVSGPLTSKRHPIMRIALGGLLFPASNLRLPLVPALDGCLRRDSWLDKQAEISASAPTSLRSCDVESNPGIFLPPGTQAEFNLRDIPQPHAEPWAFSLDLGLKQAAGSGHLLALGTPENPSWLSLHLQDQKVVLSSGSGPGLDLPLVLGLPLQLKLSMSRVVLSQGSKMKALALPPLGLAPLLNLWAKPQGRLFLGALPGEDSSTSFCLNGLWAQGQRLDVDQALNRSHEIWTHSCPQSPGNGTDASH", "experiment": "Competitive steroid-binding assay for human SHBG", "details": "for relative binding affinity for human SHBG: rising in the order ethinylestradiol, 17β-estradiol, testosterone, 5α-dihydrotestosterone", "description": "Human SHBG was treated for 30 min at room temperature with a dextran-coated charcoal (DCC) suspension in phosphate buffered saline (PBS) to remove any steroid ligand. After centrifugation (2,000×g for 10 min) to sediment the DCC, the supernatant containing the human SHBG was diluted in PBS to a concentration of 1 nM based on its steroid binding capacity.\nThe average amounts of [^3H]labeled ligands bound to SHBG at each concentration of competitor (B) were expressed as a percentage of the average amounts of [^3H]labeled ligands bound to SHBG in the absence of competitor (B0), and were. plotted against the concentration of competitor in each assay tube."}, "[2]": {"tested_on": "ovariectomized adult rats (vaginal epithelial cornification)", "experiment": "Vaginal cornification bioassay in ovariectomized rats, subcutaneous dosing", "assay_type": "in vivo, rat", "description": "Adult intact female CD rats were ovariectomized to induce estrogen deficiency. […] Castrate vaginal smears are indicative that complete ovariectomy was achieved. Treatment commenced following completion of the 7 days of smearing (day 0=first day of dosing). Animals were dosed, once daily for 7 consecutive days. Daily vaginal lavages continued to be obtained for 7 days after dosing was initiated in order to detect vaginal cornification, as an indication of an estrogenic response. A drop of vaginal washings was placed on a glass slide and examined by light microscopy to detect the presence or absence of cornified epithelial cells. Vaginal lavages were obtained prior to dosing on days 0-6 and prior to necropsy on day 7. The vaginal cornification bioassay was performed in order to determine the estrogenic profile of E4 when given subcutaneously (sc) to ovariectomized adult rats. E2 was used as a positive control. […] The occurrence of vaginal cornification, indicative of an estrogenic response, is an “all or none” response. Data are, therefore, expressed as the number of rats showing a vaginal estrogenic response over the number of rats (ratio) treated."}, "[3]": {"tested_on": "four-day cyclic rats (ovulation)", "experiment": "Antiovulatory bioassay in four-day cyclic rats, subcutaneous dosing", "assay_type": "in vivo, rat", "details": "for inhibition of ovulation: EE 1.0-100 μg/kg, E2 and E4 0.1-3.0 mg/kg; for complete ovulation inhibition: twice daily sc, higher dosages", "description": "Vaginal smears from female rats are obtained daily for two weeks to select four-day cycling rats. Only four-day cyclic rats are to be used for the antiovulatory bioassay. […] One day after the final dose (day 5), rats are euthanized by CO2 asphyxiation at 1 pm, and the number of ova per oviduct is determined. Group means are subsequently calculated for the number of ova per ovulated rat (both oviducts). The ratio of rats ovulating for each treatment group is compared to the ratio for the vehicle-treated rats."}, "[4]": {"experiment": "Elimination half-life after single subcutaneous dose, plasma by HPLC-MS/MS", "assay_type": "in vivo, rat", "details": "single sc dose, female Sprague Dawley rats, sampling 0.5-24 hours", "description": "To determine the elimination half-life of estetrol (E4) after subcutaneous administration (sc), single dose studies were performed in female Sprague Dawley rats followed by frequent blood sampling over a 24 hours interval.\nFemale Sprague Dawley rats were equipped with a permanent silatic heart catheter, as described by Kuipers et al. (1985,Gastroenterology, 88, 403-411). Rats were allowed to recover from surgery for 5 days and were than administered 0.05, 0.5,or 5 mg/kg E4 in 0.5 ml arachidis oil. E4 was injected in the neck area using a 1 ml syringe and 20 g needle. Blood samples were subsequently collected via the heart catheter in heparinized tubes at 0.5, 1, 2, 4, 8 and 24 hours. Erythrocytes were removed by centrifugation at 5000×g for 10 minutes at 4° C. and blood plasma was stored at −20° C. […] With each sample batch, a calibration curve with 6 calibrators was recorded. The calibration curve was calculated using linear regression (correlation coefficient>0.98), which permitted quantitation of plasma concentrations. […]\nPlasma E4 concentration data were analysed with “WinNonLin, edition 3.1” and involved pharmacokinetic parameters for Cmax, AUC0-24 and half-life."}, "[5]": {"details": "tritium labeled, intravenous, two adult women; cited from earlier work"}, "[6]": {"tested_on": "human breast cancer cells (MCF-7)", "details": "MCF-7, long term tissue culture; cited from earlier work"}, "immature rat uterus": {"tested_on": "immature rat uterus", "details": "subcutaneous, Holinka et al., cited from earlier work"}, "uterus": {"tested_on": "uterus", "details": "continuous administration from a subcutaneous depot; Martucci et al., 1977; cited from earlier work"}}, "note": "Where two headings read alike, the source gives them in different places.", "data": [{"smiles": "C[C@]12CCC(=O)C[C@@H]1CC[C@@H]1[C@@H]2CC[C@]2(C)[C@@H](O)CC[C@@H]12", "note": "[5α-dihydrotestosterone, reference compound]", "values": [{"measurement": "relative binding affinity for human SHBG", "setting": "[1]", "result": "show an increased relative binding affinity for human SHBG"}]}, {"smiles": "C[C@]12CC[C@@H]3c4ccc(O)cc4CC[C@H]3[C@@H]1CC[C@@H]2O", "note": "[17β-estradiol]", "values": [{"measurement": "Number of Rats Exhibiting Estrogenic Response/Number of Rats Treated", "setting": "[2]; 0.05 mg/kg/day sc, Day 0", "result": "0/8"}, {"measurement": "Number of Rats Exhibiting Estrogenic Response/Number of Rats Treated", "setting": "[2]; 0.05 mg/kg/day sc, Day 1", "result": "0/8"}, {"measurement": "Number of Rats Exhibiting Estrogenic Response/Number of Rats Treated", "setting": "[2]; 0.05 mg/kg/day sc, Day 2", "result": "8/8"}, {"measurement": "Number of Rats Exhibiting Estrogenic Response/Number of Rats Treated", "setting": "[2]; 0.05 mg/kg/day sc, Day 3", "result": "8/8"}, {"measurement": "Number of Rats Exhibiting Estrogenic Response/Number of Rats Treated", "setting": "[2]; 0.05 mg/kg/day sc, Day 4", "result": "8/8"}, {"measurement": "Number of Rats Exhibiting Estrogenic Response/Number of Rats Treated", "setting": "[2]; 0.05 mg/kg/day sc, Day 5", "result": "8/8"}, {"measurement": "Number of Rats Exhibiting Estrogenic Response/Number of Rats Treated", "setting": "[2]; 0.05 mg/kg/day sc, Day 6", "result": "8/8"}, {"measurement": "Number of Rats Exhibiting Estrogenic Response/Number of Rats Treated", "setting": "[2]; 0.05 mg/kg/day sc, Day 7", "result": "8/8"}, {"measurement": "inhibition of ovulation", "setting": "[3]; twice daily sc for 4 days", "result": "dose-dependently inhibits ovulation"}, {"measurement": "complete ovulation inhibition", "setting": "[3]", "result": "complete ovulation inhibition is achieved"}]}, {"smiles": "C[C@]12CC[C@@H]3c4ccc(O)cc4CC[C@H]3[C@@H]1[C@@H](O)[C@@H](O)[C@@H]2O", "note": "[estetrol, 1,3,5 (10)-estratrien-3, 15α,16α,17β-tetrol]", "values": [{"measurement": "Number of Rats Exhibiting Estrogenic Response/Number of Rats Treated", "setting": "[2]; 1.0 mg/kg/day sc, Day 7, listed as E4", "result": "all rats showed a vaginal estrogenic response"}, {"measurement": "Number of Rats Exhibiting Estrogenic Response/Number of Rats Treated", "setting": "[2]; 3.0 mg/kg/day sc, Day 7, listed as E4", "result": "all rats showed a vaginal estrogenic response"}, {"measurement": "onset of vaginal epithelial cornification", "setting": "[2]; sc 0.1, 0.3, 1.0 and 3.0 mg/kg/day", "result": "dose-dependent"}, {"measurement": "day of treatment on which vaginal epithelial cornification started", "setting": "[2]; sc 0.1, 0.3, 1.0 and 3.0 mg/kg/day, same day as observed for E2", "result": 2, "unit": "days"}, {"measurement": "plasma levels of unconjugated E4 over a 24 hour interval", "setting": "[4]", "result": "detection of bioactive levels of unconjugated E4 at all time points"}, {"measurement": "binding to human SHBG (competitive displacement)", "setting": "[1]; [3H]DHT as labeled ligand", "result": "does not bind at all"}, {"measurement": "binding to human SHBG (competitive displacement)", "setting": "[1]; [3H]estradiol as labeled ligand", "result": "does not bind at all"}, {"measurement": "binding to SHBG compared with the other estrogens tested", "setting": "[1]; compared with ethinylestradiol and 17β-estradiol", "result": "negligible"}, {"measurement": "antiovulatory activity compared with E2", "setting": "[3]; twice daily sc for 4 days", "result": "equal potency or even more potency in inhibiting ovulation than E2"}, {"measurement": "inhibition of ovulation", "setting": "[3]; twice daily sc for 4 days", "result": "dose-dependently inhibits ovulation"}, {"measurement": "complete ovulation inhibition", "setting": "[3]", "result": "complete ovulation inhibition is achieved"}, {"measurement": "metabolism", "setting": "[5]", "result": "virtually no metabolism except for conjugation took place"}, {"measurement": "agonistic potency in in vitro cell proliferation, of the magnitude observed for 17β-estradiol", "setting": "[6]", "result": 2, "unit": "%"}, {"measurement": "uterotrophic activity", "setting": "immature rat uterus; 1979", "result": "very weak uterotrophic activity"}, {"measurement": "uterotrophic activity", "setting": "immature rat uterus; 1980", "result": "very weak uterotrophic activity"}, {"measurement": "uterotrophic activity", "setting": "uterus", "result": "very weak uterotrophic activity"}]}, {"smiles": "C[C@]12CC[C@H]3[C@@H](CCC4=CC(=O)CC[C@@]43C)[C@@H]1CC[C@@H]2O", "note": "[testosterone, reference compound]", "values": [{"measurement": "relative binding affinity for human SHBG", "setting": "[1]", "result": "show an increased relative binding affinity for human SHBG"}]}]}
